# Assay results as given in the COVID Moonshot data (paper PMC7615835).
# Several values for one entry are separate records, joined by “and”; a condition that tells them apart may be missing. Identical values can stand only once.
# Biological target: SARS-CoV-2 Main Protease (SARS-CoV-2) (UniProt P0DTD1)
row,Structure (SMILES),IC50
1,CN(C)C(=O)COCC1(C(=O)Nc2cncc3ccccc23)CCOc2ccc(Cl)cc21 (stereo unspecified),0.652 µM
2,CC(C)(C)OC(=O)N(c1cc(Cl)cc(CC(=O)Nc2cncc3ccccc23)c1)C1CNC1,2.03 µM
3,COc1cc(N(C(=O)c2cocn2)C(C(=O)NCCc2cccc(F)c2)c2cccnc2)ccc1S(=O)(=O)N(C)C (stereo unspecified),> 99.5 µM
4,Cc1nc2ccc(N(C(=O)c3cocn3)C(C(=O)NCCc3cccc(F)c3)c3cccnc3)cc2o1 (stereo unspecified),> 99.5 µM
5,O=C(Nc1cncc2ccccc12)c1ccnc2cc(Cl)c(Cl)cc12,28.1 µM
6,CCNC(=O)CN1CC(C(=O)Nc2cncc3cc(F)ccc23)c2cc(Cl)ccc2C1=O (stereo unspecified),0.161 µM
7,O=C(NC(c1ccccc1)c1ccccc1)[C@H]1CN(C(=O)CCl)CCN1S(=O)(=O)c1ccsc1 (stereo in doubt),0.832 µM
8,N[C@@H](Cc1ccc(O)cc1)C(=O)Nc1cc(Cl)cc(CC(=O)Nc2cncc3ccccc23)c1 (stereo in doubt),2.51 µM
9,O=C(Cn1nnc2ccccc21)N(Cc1ccccc1)c1ccc(N2CCOCC2)cc1,19.8 µM
10,CC(=O)N1CCN(CC(=O)Nc2cnccc2C2CC2)CC1,> 99.5 µM
11,O=C(Cc1cc(Cl)cc(Oc2cccnc2)c1)Nc1cncc2ccccc12,1.14 µM and 1.57 µM and 1.17 µM
12,COc1cc(CNc2cc(Cl)cc(CC(=O)Nc3cncc4ccccc34)c2)ccc1O,1.88 µM
13,CCC(C)(C)CCN(Cc1ccsc1)C(=O)Cn1nnc2ccccc21,78.5 µM
14,CN(C)CCCOc1ccc2cncc(N3CCC4(CN(S(=O)(=O)CC5(C#N)CC5)Cc5ccc(Cl)cc54)C3=O)c2c1 (stereo unspecified),0.149 µM
15,O=C(Cc1cccc(Cl)c1)Nc1cncc2c1CCCN2,7.27 µM
16,O=c1oc(Nc2ccccc2)nc2ccccc12,1.57 µM
17,N#CCC1(CS(=O)(=O)N2Cc3ccc(Cl)cc3C(C(=O)Nc3cncc4ccccc34)C2)CC1 (stereo unspecified),0.128 µM
18,CNC(=O)CN1Cc2ccc(Cl)cc2C2(CCN(c3cncc4cccc(Cl)c34)C2=O)C1 (stereo unspecified),3.28 µM
19,O=C(Cc1cccc(Cl)c1)Nc1noc2ncccc12,> 99.5 µM
20,CN(C)C(=O)C[C@@]1(C(=O)Nc2cncc3ccccc23)CCOc2ccc(Cl)cc21 (stereo in doubt),20.5 µM
21,Cc1ccc2cccc(Nc3cc(Cl)cc(CC(=O)Nc4cncc5ccccc45)c3)c2n1,4.93 µM
22,CC12CC3CC(C)(C1)CC(Nc1cc(Cl)cc(CC(=O)Nc4cncc5ccccc45)c1)(C3)C2,1.58 µM
23,C=CC(=O)NCc1ccccc1S(=O)(=O)NC(C)(C)C,> 99.5 µM
24,O=C(Nc1cncc2ccccc12)C(NCC1CC1)c1ccc(Cl)c(Cl)c1 (stereo unspecified),1.75 µM
25,COc1ccc(N2CCN(C(=O)c3cc(=O)[nH]c4ccccc34)CC2)cc1,14.7 µM
26,O=C(Cc1cccc(Cl)c1)Nc1[nH]nc2cc(F)ccc12,> 99.5 µM

row,Structure (SMILES),IC50
1,N#CC1(CS(=O)(=O)N2Cc3ccc(Cl)cc3C(C(=O)Nc3nncn3C3CC3)C2)CC1 (stereo unspecified),55.3 µM
2,COc1ncncc1C(C(=O)NCCc1cccc(F)c1)N(C(=O)c1cocn1)c1ccc(C(C)(C)C)cc1 (stereo unspecified),8.43 µM
3,COCCN1CCc2ccc(Cl)cc2C1C(=O)Nc1cncc2ccccc12 (stereo unspecified),1.88 µM
4,C=CS(=O)(=O)N1CCN(S(=O)(=O)c2ccccc2)CC1,> 99.5 µM
5,COCC1(C(=O)Nc2cncc3ccccc23)CCOc2cc(Cl)c(Cl)cc21 (stereo unspecified),4.04 µM
6,CC(C)(C)c1ccc(N(C(=O)C2CCCN2)C(C(=O)NCCc2cccc(F)c2)c2cccnc2)cc1 (stereo unspecified),> 99.5 µM
7,O=C(Cc1cc(Cl)cc(Nc2c(F)cc(Br)cc2F)c1)Nc1cncc2ccccc12,1.54 µM
8,O=C(Cc1cc(Cl)cc(Nc2cc(F)c(Br)c(F)c2)c1)Nc1cncc2ccccc12,2.05 µM
9,COc1ccc(NC(=O)C(c2cccnc2)N(C(=O)c2cocn2)c2ccc(C(C)(C)C)cc2)cn1 (stereo unspecified),5.37 µM
10,Cc1cn2ccc(C(=O)Nc3nc(-c4cnn(C)c4)cs3)cc2n1,> 99.5 µM
11,O=C1Cc2ccccc2N(C(=O)Cc2cccc(Cl)c2)C1,> 99.5 µM
12,O=C(NCCc1cccc(F)c1)C(c1cccnc1)N(C(=O)c1cnc[nH]1)C1CCC2(CCO2)CC1 (stereo unspecified),> 99 µM
13,O=C1CCCCN1c1ccc(N(Cc2ccccc2)C(=O)Cc2[nH]nc3ccccc23)cc1,39.4 µM
14,Cc1cc(C)c(C)c(S(=O)(=O)N2CCN(C(=O)c3cc(=O)[nH]c4ccccc34)CC2)c1C,8.19 µM and 8.74 µM
15,CCn1nccc1C(=O)N1Cc2ccc(Cl)cc2C2(CCN(c3cncc4ccccc34)C2=O)C1 (stereo unspecified),0.297 µM
16,C[C@H](C/C=C/C(C)(C)O)[C@H]1CC[C@@]2(C)[C@@H]3C=C[C@@]45OC[C@]3(CC[C@]12C)[C@@H]4CC[C@H](O)C5(C)C (stereo in doubt),> 99.5 µM
17,CC(Cc1nc2ccccc2s1)Nc1ccc2nnnn2n1 (stereo unspecified),> 99.5 µM
18,COc1cc2nc(Cl)nc(Nc3cc(Cl)cc(CC(=O)Nc4cncc5ccccc45)c3)c2cc1OC,2.36 µM
19,O=C(NCCCc1nc(=O)[nH][nH]1)C1(c2ccc(F)cc2F)CCC1,> 99.5 µM
20,O=C(Nc1cncc2ccccc12)C1CCOc2c1ccc(Cl)c2Cl (stereo unspecified),3.31 µM
21,CN(C)CCOc1ccc2cncc(NC(=O)C3CN(S(=O)(=O)CC4(C)CS(=O)(=O)C4)Cc4ccc(Cl)cc43)c2c1 (stereo unspecified),0.125 µM
22,Cn1cncc1C(=O)N1Cc2ccc(Cl)cc2C(C(=O)Nc2cncc3ccccc23)C1 (stereo unspecified),0.224 µM
23,O=C(Cc1ccncc1Cl)Nc1cncc2ccccc12,52.6 µM
24,Cc1cccc2ncc(NC(=O)Cc3cccc(Cl)c3)n12,5.54 µM
25,O=C(NCCCO)c1ccc(N(C(=O)c2cocn2)C(C(=O)NCCc2cccc(F)c2)c2cccnc2)cc1 (stereo unspecified),> 99.5 µM
